From patent publication US4766212A, “2H-[1]benzoxepino[5,4-b]-1,4-oxazine derivatives” (Merrell Dow Pharmaceuticals Inc., priority 1987, dated 1988)

Experiments:
[1] = test system: Spontaneously hypertensive rats; test: Systolic arterial blood pressure in spontaneously hypertensive rats (antihypertensive activity); format: in vivo, rat; conditions: for Change In Systolic Blood Pressure From Control Post Treatment: * p < 0.05
Experimental: Spontaneously hypertensive rates (males 250-300 g), obtained from the Charles River Breeding Laboratories, are divided into different treatment groups of 12 rats each. On separate days, one group of 12 rats is given 3, 10 or 30 mg/kg of the test compound, trans-3,4,4a,5,6,11b-hexahydro-10-fluoro-2H-[1]benzoxepino[5,4-b]-1,4-oxazine hydrochloride, by gavage and another group of 12 rats is given water (vehicle, 5 ml/kg).
Systolic arterial blood pressure is recorded from the tail of each rat using an occluding cuff and transducer. Systolic arterial blood pressure is recorded prior and subsequent to the administration of drug or vehicle at 1, 2, 3 and 4 hours post treatment.

mice [2] = test: Acetic acid writhing syndrome test for analgesic activity; format: in vivo, mouse; conditions: for ED50: Mus musculus, sc
Experimental: J. Pharmacol., 22, 2246 (1964).
Groups of 5 to 10 mice are administered one or more doses of the test compound by the desired route (but not intraperitoneally). At a selected time the mice are administered acetic acid, 0.4 ml (0.25% v/v solution) i.p. Five minutes later, the mice are observed for a period of 15 minutes to determine the appearance of squirming (abdominal writhing), and the number of squirms for each mouse is determined.
For ED50 determination, four or more doses of compound are tested in groups of 10 mice. The following ED50 's for analgesic activity were observed and determined.

[3] = test system: morphine-induced Straub tail; test: Antagonism of morphine-induced Straub tail (muscle relaxant activity); format: in vivo; conditions: Mus musculus, ip; mice, i.p., 15 min before morphine sulfate s.c.
Experimental: The characteristic elevation of the mouse tail (Straub tail) following morphine administration is due to a sustained, centrally mediated reflex contraction of the sacrococcygeus dorsalis muscle. Five to ten mice are used in each test, weight (18 to 30 grams) and placed in a Plexiglass observation chamber 2 to 3 minutes prior to injection. Animals are treated with the test compound at log doses, ca. 10 ml/kg, based upon the ED50 obtained from the Rotorod test (reduction of motor ability). Fifteen minutes later the desired dose of morphine sulfate, ca. 10 ml/kg, is injected subcutaneously and the mice observed for a period of 30 minutes following morphine administration for the presence or absence of Straub tail (defined as elevation of tail at 90° C. or more).

mice [4] = test: Reduction of motor ability, rotorod; format: in vivo; conditions: Mus musculus, ip, 50% decrease in mean time on the rotorod
Experimental: Following a method of Kinnard and Carr, J. Pharmacol. Exp. Therap., 121, 354 (1957), groups of 10 mice are preselected for their ability to remain upon a horizontal rotating (15 rpm) rod (rotorod) for 120 seconds. The mice are dosed with the test compound and tested at various times. The percent change in mean time upon the rotorod from the pre-drug control time of 120 seconds is calculated for each dose group. […] The ED50 is defined as the dose of compound producing a 50% decrease in mean time on the rotorod.

[5] = 0.5 h, oral, pretreatment time 30 minutes
[6] = 0.5 h, subcutaneous, pretreatment time 30 minutes
[7] = 1 h, subcutaneous, pretreatment time 60 minutes
[8] = 2 h, subcutaneous, pretreatment time 120 minutes

## Cl.Fc1ccc2c(c1)[C@H]1OCCN[C@@H]1CCO2 (relative stereo) [trans-3,4,4a,5,6,11b-hexahydro-10-fluoro-2H-[1]benzoxepino[5,4-b]-1,4-oxazine hydrochloride]
[1]; 3 mg/kg by gavage, 1 Hour
  Change In Systolic Blood Pressure From Control Post Treatment: -15 mm Hg
[1]; 3 mg/kg by gavage, 2 Hours
  Change In Systolic Blood Pressure From Control Post Treatment: -20 mm Hg
[1]; 3 mg/kg by gavage, 3 Hours
  Change In Systolic Blood Pressure From Control Post Treatment: -22 mm Hg
[1]; 3 mg/kg by gavage, 4 Hours
  Change In Systolic Blood Pressure From Control Post Treatment: -24 mm Hg
[1]; 10 mg/kg by gavage, 1 Hour
  Change In Systolic Blood Pressure From Control Post Treatment: -52 mm Hg
[1]; 10 mg/kg by gavage, 2 Hours
  Change In Systolic Blood Pressure From Control Post Treatment: -44 mm Hg
[1]; 10 mg/kg by gavage, 3 Hours
  Change In Systolic Blood Pressure From Control Post Treatment: -42 mm Hg
[1]; 10 mg/kg by gavage, 4 Hours
  Change In Systolic Blood Pressure From Control Post Treatment: -45 mm Hg
[1]; 30 mg/kg by gavage, 1 Hour
  Change In Systolic Blood Pressure From Control Post Treatment: -84 mm Hg
[1]; 30 mg/kg by gavage, 2 Hours
  Change In Systolic Blood Pressure From Control Post Treatment: -73 mm Hg
[1]; 30 mg/kg by gavage, 3 Hours
  Change In Systolic Blood Pressure From Control Post Treatment: -73 mm Hg
[1]; 30 mg/kg by gavage, 4 Hours
  Change In Systolic Blood Pressure From Control Post Treatment: -72 mm Hg
[1]; 3, 10, 30 mg/kg by gavage
  effect on systolic arterial blood pressure, in words: dose related decrease in systolic arterial blood pressure that is statistically significant
[1]; at the three doses tested (3, 10, 30 mg/kg, gavage)
  duration of the anti-hypertensive effect: at least 4 hours

## CN1CCO[C@@H]2c3ccccc3OCC[C@H]21.O=C(O)/C=C\C(=O)O (relative stereo) [Trans-3,4,4a,5,6,11b-Hexahydro-4-methyl-2H-[1]benzoxepino[5,4-b]-1,4-oxazine Maleate]
Mice [2]; [5]
  ED50: 42.8 mg/kg
Mice [2]; [6]
  ED50: 4.35 mg/kg
Mice [2]; 1 h, oral, pretreatment time 60 minutes
  ED50: 52.2 mg/kg
Mice [2]; [7]
  ED50: 13.8 mg/kg
Mice [2]; [8]
  ED50: 26.6 mg/kg
Mice [2]; subcutaneous, pretreatment time 120 minutes, @ 256 mg/kg
  analgesic effect in brackets beside the ED50: 50%
[3]
  ED50: 2.89 mg/kg
Mice [4]
  ED50: 12.4 mg/kg

## CCN1CCO[C@@H]2c3ccccc3OCC[C@H]21 (relative stereo) [Trans-4-Ethyl-3,4,4a,5,6,11b-hexahydro-2H-[1]benzoxepino[5,4-b]-1,4-oxazine]
Mice [2]; [5]
  ED50: 6.8 mg/kg
Mice [2]; [6]
  ED50: 1.5 mg/kg
Mice [2]; [7]
  ED50: 8.8 mg/kg
Mice [2]; [8]
  ED50: > 128 mg/kg

## Cl.c1ccc2c(c1)OCC[C@H]1NCCO[C@H]21 (relative stereo) [Trans-3,4,4a,5,6,11b-Hexahydro-2H-[1]benzoxepino-[5,4-b]-1,4-oxazine Hydrochloride]
[3]
  ED50: 1.03 mg/kg
Mice [4]
  ED50: 23.9 mg/kg
